What follows are compounds tested against T1, RORγ ligand binding domain (LBD) (Homo sapiens, UniProt P51449) (assay: TR-FRET Activity Assay (ligand sensing, RORγ-LBD / coactivator peptide interaction)). Conditions: not given.
T1 construct: made in house; host or cells: E. coli BL-21 (BL3), vector pDEST15
T1 sequence (P51449 269-508 limits assumed): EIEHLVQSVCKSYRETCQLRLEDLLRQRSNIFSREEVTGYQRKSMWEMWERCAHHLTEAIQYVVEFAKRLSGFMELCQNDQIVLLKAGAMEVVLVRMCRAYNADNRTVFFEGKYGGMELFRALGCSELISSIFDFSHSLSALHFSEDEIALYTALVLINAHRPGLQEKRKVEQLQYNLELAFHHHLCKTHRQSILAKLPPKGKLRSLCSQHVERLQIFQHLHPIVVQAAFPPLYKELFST
Type: biochemical
Excerpt: This method measures the ability of putative ligands to modulate the interaction between the purified bacterial expressed RORγ ligand binding domain (LBD) and synthetic N-terminally biotinylated peptides which are derived from nuclear receptor coactivator proteins such as but not limited to SRC1 (NcoA1), SRC2 (NcoA2, TIF2), SRC3 (NcoA3), PGC1α, PGC1β, CBP, GRIP1, TRAP220, RIP140.
The ligand-binding domain (LBD) of RORγ was expressed as fusion protein with GST in […] cells using the vector pDEST15. Cells were lysed by lysozyme-treatment and sonication, and the fusion proteins purified over glutathione sepharose (Pharmacia) according to the manufacturers instructions. For screening of compounds for their influence on the RORγ-peptide interaction, the LANCE technology (Perkin Elmer) was applied. This method relies on the binding dependent energy transfer from a donor to an acceptor fluorophor attached to the binding partner of interest. For ease of handling and reduction of background from compound fluorescence LANCE technology makes use of generic fluorophore labels and time resolved detection assays were done in a final volume of 25 μL in a 384 well plate, in a Tris-based buffer system (20 mM Tris-HCl pH6.8; 60 mM KCl, 1 mM DTT; 5 mM MgCl2; 35 ng/μL BSA), containing 20-60 ng/well recombinantly expressed RORγ-LBD fused to GST, 200-600 nM N-terminally biotinylated peptide, 200 ng/well Streptavidin-xIAPC conjugate (Prozyme) and 6-10 ng/well Eu W1024-antiGST (Perkin Elmer). DMSO content of the samples was kept at 1%.
After generation of the Tris-based buffer system, the potentially RORγ modulating ligands were diluted. […] The LANCE signal was detected by a Perkin Elmer EnVision™ Multilabel Counter. The results were visualized by plotting the ratio between the emitted light at 665 nm and 615 nm. […] Ligands that promote the complex formation induce a concentration-dependent increase in time-resolved fluorescent signal.
The normalised TR-FRET assay values, using the following equation: 1000*665 nm measurement value/615 nm measurement value, were transferred to the program GraphPad Prism to generate graphs and dose response curves using the following equation:
Equation: Sigmoidal Dose-Response (Variable Slope) Y=Bottom+(Top-Bottom)/(1+10^((LogEC50−X)*HillSlope)) X is the logarithm of the concentration. Y is the response. Y starts at Bottom and goes to Top with a sigmoidal shape.
This is identical to the “four parameter logistic equation”. The IC50 values are calculated using this equation.

Q: With `Cc1c(S(N)(=O)=O)cc(-c2cc(C(C)(C)C)cc(S(=O)(=O)N(C)C(C)(C)C)c2)n1CC1CCCCC1` [22/4] as the compound, how does the IC50 read?
A: The IC50 was 500 to 2000 nM.

Q: `CCNS(=O)(=O)c1cc(-c2cc(C(C)(C)C)cc(C(C)(C)C)c2)n(CC2CCCCC2)c1C` [Example 2, 1-(Cyclohexylmethyl)-5-(3,5-di-tert-butylphenyl)-N-ethyl-2-methyl-1H-pyrrole-3-sulfonamide] was tested. Which IC50 did it give?
A: Its IC50 is under 500 nM.

Q: For `COCCNS(=O)(=O)c1cc(-c2cc(C(C)(C)C)cc(C(C)(C)C)c2)n(CC2CCCCC2)c1C` [Example 2/1], which IC50 is on record?
A: Its IC50 is under 500 nM.

Q: With `CC(=NO)c1cc(-c2cc(S(N)(=O)=O)c(C)n2CC2CCCCC2)cc(C(C)(C)C)c1` [Example 6, 5-(3-(tert-Butyl)-5-(1-(hydroxyimino)ethyl)phenyl)-1-(cyclohexylmethyl)-2-methyl-1H-pyrrole-3-sulfonamide] as the compound, how does the IC50 read?
A: The IC50 was 500 to 2000 nM.

Same assay, conditions: read-out: RORγ activity in the TR-FRET Activity Assay (IC50 FRET), Group

Q: For `Cc1c(S(N)(=O)=O)cc(-c2ccc(S(=O)(=O)NC(C)(C)C)c(C(C)(C)C)c2)n1CC1CCCCC1` [22/1], which IC50 is on record?
A: The IC50 was 500 to 2000 nM.

Q: Which IC50 does the source give for `Cc1c(S(N)(=O)=O)cc(-c2ccc(S(=O)(=O)N(C)C(C)(C)C)c(C(C)(C)C)c2)n1CC1CCCCC1` [22/2] here?
A: The IC50 was under 500 nM.

Q: `Cc1c(S(N)(=O)=O)cc(-c2cc(C(C)(C)C)cc(S(=O)(=O)NC(C)(C)C)c2)n1CC1CCCCC1` [22/3] was tested. Which IC50 did it give?
A: The IC50 was over 2000 nM.

Q: For `Cc1c(S(N)(=O)=O)cc(-c2ccc(S(=O)(=O)NC(C)(C)C)c(C(F)(F)F)c2)n1CC1CCCCC1` [22/5], which IC50 is on record?
A: Its IC50 is under 500 nM.

Q: Which IC50 does the source give for `CCC(C)(C)NS(=O)(=O)c1ccc(-c2cc(S(N)(=O)=O)c(C)n2CC2CCCCC2)cc1C(F)(F)F` [22/6] here?
A: Its IC50 is under 500 nM.

Q: Which IC50 does the source give for `Cc1c(S(N)(=O)=O)cc(-c2ccc(S(=O)(=O)N3CCCCC3(C)C)c(C(F)(F)F)c2)n1CC1CCCCC1` [22/9] here?
A: The IC50 was 500 to 2000 nM.

Q: How did the IC50 turn out when `Cc1c(S(N)(=O)=O)cc(-c2ccc(S(=O)(=O)NC(C)(C)C)c(C3(C)CC3)c2)n1CC1CCCCC1` [22/18] was run?
A: The IC50 was under 500 nM.

Q: For `Cc1c(S(N)(=O)=O)cc(-c2cnc(OCC(C)(C)C)c(C(F)(F)F)c2)n1CC1CCCCC1` [34/4], which IC50 is on record?
A: The IC50 was over 2000 nM.

Q: Which IC50 does the source give for `Cc1c(S(N)(=O)=O)cc(-c2cnc(NCC(C)(C)C)c(C(F)(F)F)c2)n1CC1CCCCC1` [34/5] here?
A: Its IC50 is 500 to 2000 nM.

Q: How did the IC50 turn out when `CCC(=O)NCC(C)(C)c1cc(-c2cc(S(N)(=O)=O)c(C)n2CC2CCCCC2)cc(C(C)(C)C)c1` [49/1] was run?
A: The IC50 was over 2000 nM.

Q: Which IC50 does the source give for `Cc1c(S(N)(=O)=O)cc(-c2cc(C(C)(C)C)cc(C(C)(C)CNC(=O)C3CC3)c2)n1CC1CCCCC1` [49/2] here?
A: The IC50 was over 2000 nM.

Q: How did the IC50 turn out when `Cc1c(S(N)(=O)=O)cc(-c2cn(S(=O)(=O)c3cccc(Cl)c3)c3ccccc23)n1CC1CCCCC1` [53/1] was run?
A: Its IC50 is over 2000 nM.

Q: Which IC50 does the source give for `Cc1c(S(N)(=O)=O)cc(C2=CC(S(=O)(=O)c3ccc(Cl)cc3)c3ccccc32)n1CC1CCCCC1` (stereo not shown) [53/2] here?
A: Its IC50 is 500 to 2000 nM.

Q: For `Cc1c(S(N)(=O)=O)cc(-c2cc(C(C)(C)C)cc(C(C)(C)C)c2)n1CC1CCCCC1` [Example 1, 1-(Cyclohexylmethyl)-5-(3,5-di-tert-butylphenyl)-2-methyl-1H-pyrrole-3-sulfonamide], which IC50 is on record?
A: Its IC50 is under 500 nM.

Q: `Cc1c(S(=O)(=O)NC2CC2)cc(-c2cc(C(C)(C)C)cc(C(C)(C)C)c2)n1CC1CCCCC1` [Example 3, 1-(Cyclohexylmethyl)-N-cyclopropyl-5-(3,5-di-tert-butylphenyl)-2-methyl-1H-pyrrole-3-sulfonamide] was tested. Which IC50 did it give?
A: Its IC50 is under 500 nM.

Q: `Cc1c(S(=O)(=O)NCCCCCO)cc(-c2cc(C(C)(C)C)cc(C(C)(C)C)c2)n1CC1CCCCC1` [Example 5] was tested. Which IC50 did it give?
A: The IC50 was under 500 nM.

Q: How did the IC50 turn out when `Cc1c(S(N)(=O)=O)cc(-c2cc3c(c(C(C)(C)C)c2)OCCC3=NO)n1CC1CCCCC1` [Example 6/1, 5-(8-(tert-Butyl)-4-(hydroxyimino)chroman-6-yl)-1-(cyclohexylmethyl)-2-methyl-1H-pyrrole-3-sulfonamide] was run?
A: Its IC50 is over 2000 nM.

Q: With `Cc1c(S(N)(=O)=O)cc(-c2cc(C(C)(C)C)cc(C(C)(F)F)c2)n1CC1CCCCC1` [Example 7, 5-(3-(tert-Butyl)-5-(1,1-difluoroethyl)phenyl)-1-(cyclohexylmethyl)-2-methyl-1H-pyrrole-3-sulfonamide] as the compound, how does the IC50 read?
A: The IC50 was under 500 nM.

Q: Which IC50 does the source give for `Cc1c(S(N)(=O)=O)cc(-c2cc(C(C)(C)C)c(C(=O)O)c(C(C)(C)C)c2)n1CC1CCCCC1` [Example 8, 2,6-Di-tert-butyl-4-(1-(cyclohexylmethyl)-5-methyl-4-sulfamoyl-1H-pyrrol-2-yl)benzoic acid] here?
A: The IC50 was over 2000 nM.

Q: How did the IC50 turn out when `Cc1c(S(N)(=O)=O)cc(-c2cc(C(C)(C)C)c(C#N)c(C(C)(C)C)c2)n1CC1CCCCC1` [Example 9, 1-(Cyclohexylmethyl)-5-(3,5-di-tert-butyl-4-cyanophenyl)-2-methyl-1H-pyrrole-3-sulfonamide] was run?
A: Its IC50 is under 500 nM.

Q: `Cc1c(S(=O)(=O)NCC(C)(C)C(=O)O)cc(-c2ccc(S(=O)(=O)NC(C)(C)C)c(C(C)(C)C)c2)n1CC1CCCCC1` [Example 11, 3-(5-(3-(tert-Butyl)-4-(N-(tert-butyl)sulfamoyl)phenyl)-1-(cyclohexylmethyl)-2-methyl-1H-pyrrole-3-sulfonamido)-2,2-dimethylpropanoic acid] was tested. Which IC50 did it give?
A: The IC50 was over 2000 nM.

Q: For `Cc1c(S(N)(=O)=O)cc(-c2cc(C(=O)NCC(C)C)cc(C(C)(C)C)c2)n1CC1CCCCC1` [Example 13, 3-(tert-Butyl)-5-(1-(cyclohexylmethyl)-5-methyl-4-sulfamoyl-1H-pyrrol-2-yl)-N-isobutylbenzamide], which IC50 is on record?
A: The IC50 was 500 to 2000 nM.

Q: With `Cc1c(S(N)(=O)=O)cc(-c2cc(O)cc(C(C)(C)C)c2)n1CC1CCCCC1` [Example 14, 5-(3-(tert-Butyl)-5-hydroxyphenyl)-1-(cyclohexylmethyl)-2-methyl-1H-pyrrole-3-sulfonamide] as the compound, how does the IC50 read?
A: The IC50 was over 2000 nM.

Q: Which IC50 does the source give for `Cc1c(S(N)(=O)=O)cc(-c2cc(OCCCC(=O)O)cc(C(C)(C)C)c2)n1CC1CCCCC1` [Example 16, 4-(3-(tert-Butyl)-5-(1-(cyclohexylmethyl)-5-methyl-4-sulfamoyl-1H-pyrrol-2-yl)phenoxy)butanoic acid] here?
A: Its IC50 is over 2000 nM.

Q: How did the IC50 turn out when `Cc1c(S(N)(=O)=O)cc(-c2cc(OCC(C)C)nc(C(C)(C)C)c2)n1CC1CCCCC1` [Example 17, 5-(2-tert-Butyl-6-isobutoxypyridin-4-yl)-1-(cyclohexylmethyl)-2-methyl-1H-pyrrole-3-sulfonamide] was run?
A: The IC50 was under 500 nM.

Q: For `Cc1c(S(N)(=O)=O)cc(-c2cc(C(C)(C)C)nc(C(C)(C)C)c2)n1CC1CCCCC1` [Example 18, 1-(Cyclohexylmethyl)-5-(2,6-di-tert-butylpyridin-4-yl)-2-methyl-1H-pyrrole-3-sulfonamide], which IC50 is on record?
A: Its IC50 is under 500 nM.

Q: `Cc1c(S(N)(=O)=O)cc(-c2cc(C(=O)NC(C)(C)C)nc(C(C)(C)C)c2)n1CC1CCCCC1` [Example 20, N,6-Di-tert-butyl-4-(1-(cyclohexylmethyl)-5-methyl-4-sulfamoyl-1H-pyrrol-2-yl)picolinamide] was tested. Which IC50 did it give?
A: The IC50 was 500 to 2000 nM.

Q: Which IC50 does the source give for `Cn1c(S(N)(=O)=O)cc(-c2cc(C(C)(C)C)cc(C(C)(C)C)c2)c1CC1CCCCC1` [Example 25, 5-(Cyclohexylmethyl)-4-(3,5-di-tert-butylphenyl)-1-methyl-1H-pyrrole-2-sulfonamide] here?
A: The IC50 was over 2000 nM.

Q: With `CC(C)(C)c1cc(-c2cc(S(N)(=O)=O)cn2CC2CCCCC2)cc(C(C)(C)C)c1` [Example 28, 1-(Cyclohexylmethyl)-5-(3,5-di-tert-butylphenyl)-1H-pyrrole-3-sulfonamide] as the compound, how does the IC50 read?
A: The IC50 was under 500 nM.

Q: How did the IC50 turn out when `CC(C)(C)c1cc(-c2cc(S(N)(=O)=O)c(Cl)n2CC2CCCCC2)cc(C(C)(C)C)c1` [Example 29, 2-Chloro-1-(cyclohexylmethyl)-5-(3,5-di-tert-butylphenyl)-1H-pyrrole-3-sulfonamide] was run?
A: The IC50 was under 500 nM.

Q: `CC(C)(C)c1cc(-c2c(Cl)c(S(N)(=O)=O)c(Cl)n2CC2CCCCC2)cc(C(C)(C)C)c1` [Example 30, 2,4-Dichloro-1-(cyclohexylmethyl)-5-(3,5-di-tert-butylphenyl)-1H-pyrrole-3-sulfonamide] was tested. Which IC50 did it give?
A: The IC50 was 500 to 2000 nM.

Q: With `CC(C)(C)c1cc(-c2cc(S(N)(=O)=O)c(Br)n2CC2CCCCC2)cc(C(C)(C)C)c1` [Example 31, 2-Bromo-1-(cyclohexylmethyl)-5-(3,5-di-tert-butylphenyl)-1H-pyrrole-3-sulfonamide] as the compound, how does the IC50 read?
A: Its IC50 is under 500 nM.

Q: For `CC(C)(C)c1cc(-c2c(Br)c(S(N)(=O)=O)c(Br)n2CC2CCCCC2)cc(C(C)(C)C)c1` [Example 32, 2,4-Dibromo-1-(cyclohexylmethyl)-5-(3,5-di-tert-butylphenyl)-1H-pyrrole-3-sulfonamide], which IC50 is on record?
A: Its IC50 is 500 to 2000 nM.

— patent US8946446B2, “Pyrrolo sulfonamide compounds for modulation of orphan nuclear receptor RAR-related orphan receptor-γ (ROR-γ, NR1F3) activity and for the treatment of chronic inflammatory and autoimmune diseases” (Phenex Pharmaceuticals AG, priority 2011, dated 2015)
